Reference: patent publication US20250333437A1, “USE OF NON-INFORMAT[…] CHAINS TO MODIFY THE […] PEPTIDES” (priority 2022, published 2025)

Assay: Solubility of the poison ivy antigen in water and ethanol
Format: physicochemical
Text: The present inventors discovered the phenomenon of tissue deposition by precipitation (TDBP) with an allergy vaccine that was a catechol and naturally had the requisite solubility properties to achieve TDBP. In particular, the poison ivy antigen that induced tolerance when precipitated in muscle by precipitation is a catechol which is naturally insoluble in water and for which effective doses are soluble in small volumes of the pharmaceutically acceptable water-miscible solvent ethanol. The inventors termed the phenomenon vaccine delivery by precipitation (VDBP) which is a preferred embodiment of TDBP and they interpreted its probable mechanism of action.
FIG. 1 is a graphic representation of the function of the adaptive immune system in the skin, reproduced from Teunissen on intradermal immunization. It is a cartoon of how immunomodulation takes place. […] These recognize and take up molecules or particles of an antigen which they then present to naive T lymphocytes which then mature along one of what are shown here as seven different pathways. The location is the cortex of a lymph node. Dendritic cells (DC's) from either homeostatic or inflamed tissue present antigenic epitopes in their MHC Class Il molecular grooves, to naive T lymphocytes (Tn). […]

Q: Which solubility in ethanol (effective doses in small volumes of ethanol) does the source give for urushiol [poison ivy antigen] here?
A: soluble

Q: What about the solubility in water (water) of the same substance?
A: insoluble
